From patent publication US12083181B2, “Bi-functional molecules to degrade circulating proteins” (Yale University, priority 2018, dated 2024)

Experiments:
rhuMIF [1] = biological target: T1, rhuMIF (Homo sapiens, UniProt P14174); test: Depletion of human MIF from supernatant of cultured HepG2 cells, sandwich ELISA; type: cell-based; conditions: 100 nM huMIF, after 24 hours
T1 sequence (P14174 2-115 limits assumed): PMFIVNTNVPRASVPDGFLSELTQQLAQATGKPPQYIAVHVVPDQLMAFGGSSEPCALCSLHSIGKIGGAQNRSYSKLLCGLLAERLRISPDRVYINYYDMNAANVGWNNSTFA
Procedure: In an experiment the results of which are presented in FIG. 3, bifunctional molecules were able to deplete human MIF from the supernatant of culture HepG2 cells. Briefly, human MIF (100 nM) was added to cell culture media in the presence of negative control MIF inhibitor 3w as well as bifunctional molecules MIF-NVS-PEGn-GN3, MIF-GN3, MIF-PEGn-Gn3, MIF-AcF3-1, MIF-AcF3-2, and MIF-AcF3-3. All molecules utilized a known MIF-binding ligand. Experiments were performed in 96 well plates (approximate surface area 0.3 cm^2). HepG2 cells were grown to 90% confluency in RPMI media, then washed with PBS (2×) and treated with serum-free media (optimem+0.1% BSA, +Pen/Strep) containing 100 nM huMIF (Cayman Chemical) and compounds (when applicable). Compounds were diluted from 1 mM stock solutions in DMSO. After 24 hours, a sample of the supernatant (2 uL) was collected, diluted 1:100, and analyzed for MIF content by sandwich ELISA (and incubated for 24 hours in the presence or absence of compound). Remaining MIF levels were determined by sandwich ELISA (biolegend monoclonal anti-MIF and biotinylated anti-MIF antibodies). Data represents the average of at least 3 biological replicates, and error bars represent a standard deviation. After 24 hours, up to 95.3% of the MIF had been depleted from cell culture media (in the case of MIF-AcF3-3).

rhuMIF [2] = biological target: T1, rhuMIF; test: Depletion of injected human MIF from mice, serum sandwich ELISA; type: in vivo; conditions: nude mice injected with 5 μg recombinant human MIF
Procedure: Human MIF has a half-life of approximately 40 minutes in mice. In this experiment, human recombinant MIF (Cayman chemical) was co-injected into mice with an anti-DNP IgG, which was used as an injection positive control. In particular, nude mice were injected with 5 μg recombinant human MIF and 200 μg anti-DNP IgG as an injection control (FIG. 4). MIF-GN3 was then injected at the concentration shown and blood drawn every twenty minutes over the course of two hours. Serum was diluted 1:100 and analyzed for MIF content by sandwich ELISA (biolegend monoclonal anti-MIF and biotinylated anti-MIF antibodies).

[3] = test system: PC3 human prostate cancer cells; test: Mouse model of prostate cancer, tumor growth; type: in vivo; conditions: nude mice engrafted with PC3 cells, treatment initiated immediately
Excerpt: In this experiment, nude mice were engrafted with PC3 human prostate cancer cells. Treatment was then initiated immediately with either a non-bifunctional MIF inhibitor (3w), an anti-MIF antibody, or MIF-GN3.

rhuMIF [4] = biological target: T1, rhuMIF; test: Trafficking of MIF internalized by HepG2 cells to lysosomes, immunofluorescence; type: cell-based; design: purchased Cayman Chemical; conditions: 100 nM rhuMIF, 200 nM compound, 12 hours
Procedure: In this experiment, cells were incubated with rhuMIF (Cayman) at a concentration of 100 nM with 200 nM MIF-GN3.

O=C(CCOCC(COCCC(=O)NCCOCCOCCOCCOC[C@@]12CO[C@@H](O1)[C@H](NC(=O)C(F)(F)F)[C@@H](O)[C@H]2O)(COCCC(=O)NCCOCCOCCOCCOC[C@@]12CO[C@@H](O1)[C@H](NC(=O)C(F)(F)F)[C@@H](O)[C@H]2O)NC(=O)CCCOc1ccc2nc(-c3cn(-c4ccc(O)c(F)c4)nn3)ccc2c1)NCCOCCOCCOCCOC[C@@]12CO[C@@H](O1)[C@H](NC(=O)C(F)(F)F)[C@@H](O)[C@H]2O [MIF-AcF3-3]
MIF depleted from cell culture media (rhuMIF [1]): 95.3%

CC(=O)N[C@H]1[C@H](OCCOCCOCCNC(=O)CCOCC(COCCC(=O)NCCOCCOCCO[C@@H]2O[C@H](CO)[C@H](O)[C@H](O)[C@H]2NC(C)=O)(COCCC(=O)NCCOCCOCCO[C@@H]2O[C@H](CO)[C@H](O)[C@H](O)[C@H]2NC(C)=O)NC(=O)CNC(=O)CCCOc2ccc3nc(-c4cn(-c5ccc(O)c(F)c5)nn4)ccc3c2)O[C@H](CO)[C@H](O)[C@@H]1O [MIF-GN3]
serum huMIF levels (rhuMIF [2]; blood drawn over two hours, PBS control up to 150 ng/ml): up to 20 ng/ml | decrease in huMIF levels (rhuMIF [2]; versus PBS): substantial decrease in huMIF levels | tumor growth [3]: showed a slowing of tumor growth | trafficking of internalized MIF to lysosomes (rhuMIF [4]): evidencing internalization in lysosomes
